The values that follow come from patent US20170312305A1, “PHARMACEUTICAL EXTRACTS AND USES THEREOF” (UNIVERSITY OF SALFORD ENTERPRISES LIMITED, priority 2014, published 2017).

In one experiment the test system is MDA-468 cells. The experiment is described as follows: MTT cell viability assay, MDA-468 breast cancer cells. It is filed as cell-based. Conditions: MDA-468, 96 hours, cisplatinum 1-25 μM. As to the method:
(§1) The breast cancer cell MDA 468 and MDANQ01, K562 and human lymphoblastic cell line (MOLT-4) were grown in RPMI 1640 medium supplemented with 1% L-glutamine, 1% of 100 Units/ml penicillin and 0.1 mg/ml streptomycin and 10% inactivated FCS. While the […] cell line HeLa and fibroblast cell line 3T3 were grown in DMEM medium supplemented with 20% inactivated FCS, 1% L-glutamine, 1% of 100 units/ml penicillin & 0.1 mg/ml streptomycin. All cell lines were maintained in a humidified incubator with an atmosphere of 95% air and 5% CO2 at 37° C.
(§2) Cell viability was determined by the MTT (3-(4,5 dimethylthiazol2-yl)-2,5 diphenyltetrazolium bromide) test method. […] The metabolic activity of each well was determined by the (MTT) assay and compared to those of untreated cells. […] Cell viability was determined based on mitochondrial conversion of 3[4,5-dimethylthiazol-2-yl] […] The plates were gently agitated until the colour reaction was uniform and the absorbance was measured at 570 nm using a multi-well plate reader, Sigma Plot 2000 software was used for data analysis. The cell viability effects from exposure of cells to each concentration of crude whelk GAGs, commercial GAGs and cisplatinum were analysed as percentages of the control cell absorbance, which were obtained from control wells plated in RPMI, 1% L-glutamate and 10% FCS media. […]

The next experiment concerns MDANQ01 cells. Put plainly: MTT cell viability assay, MDANQ01 breast cancer cells. The conditions noted are these: MDANQ01, 96 hours, cisplatinum 1-25 μM. It is filed as cell-based. As to the method: as §1, §2
Background: Formazan colour is commonly taken as a measure of viable cells.

By IC50 is commonly meant the midpoint of a concentration-inhibition curve. Read a high IC50 as a need for much substance. As for `N.N.[Cl][Pt][Cl]` [cisplatinum], the IC50 in the experiment with MDA-468 cells stood at 880 nM; with MDANQ01 cells it was 630 nM.
